# Laboratory results reported in patent US10266544B2, “Aryl substituted aminomethyl spectinomycin analogs as antibacterial agents” (ST. JUDE CHILDREN'S RESEARCH HOSPITAL, INC., priority 2013, dated 2019).
# Counter-ions that a name gives are not always drawn. Like-named read-outs stand apart in the source and are kept apart here.
# How the values were obtained:
# Format in all cases: cell-based
# [1] = tested on: Staphylococcus aureus (ATCC 29213); assay: MIC determination, microbroth dilution; conditions: ATCC29213; Staphylococcus aureus (ATCC 29213); read-out: MIC S.a.
# [2] = tested on: Streptococcus pneumoniae (R6); assay: MIC determination, microbroth dilution; conditions: Streptococcus pneumoniae (R6); read-out: MIC S. pn.
# [3] = tested on: Proteus vulgaris (ATCC 33420); assay: MIC determination, microbroth dilution; conditions: ATCC33420
# Bacillus anthracis = assay: microbe, parasite or virus in culture; conditions: read-out: MIC B.a.
# [4] = tested on: Enterococcus faecalis (ATCC 33186); assay: MIC determination, microbroth dilution; conditions: ATCC33186; Enterococcus faecalis (ATCC 33186); read-out: MIC E.f.
# [5] = tested on: Streptococcus pyogenes (ATCC 700294); assay: MIC determination, microbroth dilution; conditions: ATCC700294; Streptococcus pyogenes (ATCC 700294); read-out: MIC S. py.
# E. coli K12 ΔtolC = assay: microbe, parasite or virus in culture; conditions: Escherichia coli, read-out: MIC E.c. Δtolc
# [6] = tested on: MRSA, Staphylococcus aureus (NRS70); assay: MIC determination, microbroth dilution; conditions: Staphylococcus aureus (NRS70); read-out: MIC MRSA
# [7] = tested on: Legionella pneumophila (ATCC 33153); assay: microbe, parasite or virus in culture; conditions: ATCC33153, 72 h, read-out: Zone of inhibition L.p.
# [8] = tested on: acinetobacter baumannii (ATCC 19606); assay: MIC determination, microbroth dilution; conditions: ATCC19606
# [9] = tested on: Bacillus anthracis, Sterne 34F2; assay: microbe, parasite or virus in culture; conditions: STERNE34F2, read-out: MIC B.a.
# [10] = tested on: Bacillus subtilis (ATCC 23857); assay: MIC determination, microbroth dilution; conditions: ATCC23857; Bacillus subtilis (ATCC 23857); read-out: MIC B.s.
# [11] = tested on: Pseudomonas aeruginosa (PA01); assay: MIC determination, microbroth dilution
# [12] = tested on: M. tuberculosis clinical isolates; assay: microbe, parasite or virus in culture; conditions: Mycobacterium tuberculosis
# [13] = tested on: Neisseria gonorrhoeae (ATCC 49226); assay: Disc diffusion assay; conditions: ATCC49226, 4 μg per disc, read-out: Zone of inhibition N.g.
# [14] = tested on: Proteus mirabilis (ATCC 25933); assay: MIC determination, microbroth dilution; conditions: ATCC25933
# [15] = tested on: Escherichia coli (ATCC 700926); assay: MIC determination, microbroth dilution; conditions: ATCC700926; Escherichia coli (ATCC 700926); read-out: MIC E.c.
# Description: MICs were determined using the microbroth dilution method according to Clinical Laboratory Standards Institute (CLSI; National, C. F. C. L. S., Methods for Dilution Antimicrobial Susceptibility Tests for Bacteria Grow aerobically-Seventh Edition: Approved Standard M7-A7, CLSI, Wayne, Pa., USA, 2008) and were read by visual inspection. Two fold serial dilutions of antibiotic in 100 μL of the appropriate broth media were first prepared in 96-well round bottom microtiter plates (Nalge Nunc International, Rochester, N.Y., USA). An equivalent volume (100 μL) of bacterial broth inocula containing approximately 10^5 bacterial cfu/mL was added to each well to give final concentrations of drug starting at 200 μg/mL and the plates were incubated aerobically at 37° C. M. tuberculosis microtiter plates were incubated for 7 days and all other strains were incubated overnight. After incubations, in all cases the MIC was recorded as the lowest concentration of drug that prevented bacterial growth.
# [16] = tested on: Stenotrophomonas maltophilia (ATCC 13637); assay: MIC determination, microbroth dilution; conditions: ATCC13637; Stenotrophomonas maltophilia (ATCC 13637); read-out: MIC S.m.
# [17] = tested on: Klebsiella pneumoniae (ATCC 33495); assay: MIC determination, microbroth dilution; conditions: ATCC33495
# [18] = tested on: Burkholderia cepacia (ATCC 25416); assay: MIC determination, microbroth dilution; conditions: Burkholderia cepacia
# [19] = tested on: Haemophilus influenza (ATCC 49247); assay: microbe, parasite or virus in culture; conditions: ATCC49247; Haemophilus influenza; 4 μg per disc; range of at least two experiments; read-out: Zone of inhibition H.i.
# [20] = tested on: Neisseria meningitides (ATCC 13077); assay: Disc diffusion assay; conditions: ATCC13077, 4 μg per disc, read-out: Zone of inhibition N.m.
# Listeria monocytogenes = assay: MIC determination (Table 6)
# Moraxella catarrhalis = assay: MIC determination (Table 6)
# [21] = ATCC25416, read-out: MIC B.c., Burkholderia cepacia (ATCC 25416)
# [22] = ATCC25416, read-out: MIC B.c., Burkholderia cepacia, Table 6
SMILES,MIC [1] [µg/mL],MIC [2] [µg/mL],MIC [3] [µg/mL],MIC (Bacillus anthracis) [µg/mL],MIC [5] [µg/mL],MIC (E. coli K12 ΔtolC) [µg/mL],MIC [6] [µg/mL],zone of inhibition at 4 µg/disc [7] [mm],MIC [8] [µg/mL],MIC [9] [µg/mL],MIC [10] [µg/mL],MIC [11] [µg/mL],"MIC ([12]; H37RV, read-out: MIC H37Rv) [µg/mL]",zone of inhibition at 4 µg/disc [13] [mm],MIC [14] [µg/mL],MIC [15] [µg/mL],MIC [16] [µg/mL],MIC [17] [µg/mL],"MIC [18, 21] [µg/mL]","MIC [18, 22] [µg/mL]",other results
"CN[C@@H]1[C@H](O)[C@H](NC)[C@H]2O[C@]3(O)[C@H](O[C@@H]2[C@H]1O)O[C@H](C)C[C@]3(O)CNCCc1ccccc1 [compound 27, 3′-(S)-3′-(phenethylaminomethyl)dihydrospectinomycin Trihydrochloride]",> 200,> 200,> 200,> 200,50 to 100,25 to 50,> 200,0,≥ 200,> 200,> 200,> 200,200,7,> 200,50 to 100,≥ 200,> 200,200,> 200,MIC [4]: > 200 µg/mL; zone of inhibition at 4 µg/disc [19]: 0 mm; zone of inhibition at 4 µg/disc [20]: 0 mm
"CN[C@@H]1[C@H](O)[C@H](NC)[C@H]2O[C@]3(O)[C@H](O[C@@H]2[C@H]1O)O[C@H](C)C[C@@]3(O)CNc1ccc(OC)cc1 [compound 29, 3′-(R)-3′-[(4-methoxy)phenylaminomethyl)]dihydrospectinomycin Trihydrochloride]",200,> 200,> 200,,25,50,> 200,0,≥ 200,100 to 200,200,> 200,> 200,12,> 200,≥ 200,200,> 200,,,zone of inhibition at 4 µg/disc [19]: 7 mm; zone of inhibition at 4 µg/disc [20]: 7 mm
"CN[C@@H]1[C@H](O)[C@H](NC)[C@H]2O[C@]3(O)[C@H](O[C@@H]2[C@H]1O)O[C@H](C)C[C@@]3(O)CNc1ccccc1 [compound 30, 3′-(R)-3′-(phenylaminomethyl)dihydrospectinomycin Trihydrochloride]",> 200,12.5 to 25,> 200,,12.5 to 25,50,> 200,0,> 200,100 to 200,≥ 200,> 200,> 200,7,> 200,200,≥ 200,> 200,> 200,,zone of inhibition at 4 µg/disc [19]: 6 mm; zone of inhibition at 4 µg/disc [20]: 6 mm
CN[C@@H]1[C@H](O)[C@H](NC)C2O[C@]3(O)C(OC2[C@H]1O)O[C@H](C)C[C@@]3(O)CNCc1cccc(O)c1 (stereo partly shown) [compound 35],25 to 50,0.8 to 1.6,≥ 200,,0.4 to 0.8,6.3 to 12.5,25 to 50,30,> 200,25,6.3,≥ 200,50,16,> 200,200,25,> 200,> 200,,MIC [4]: 12.5 µg/mL; zone of inhibition at 4 µg/disc [19]: 15 to 16 mm; zone of inhibition at 4 µg/disc [20]: 18 mm
"CN[C@@H]1[C@H](O)[C@H](NC)[C@H]2O[C@]3(O)[C@H](O[C@@H]2[C@H]1O)O[C@H](C)C[C@@]3(O)CNCCc1ccc(C(F)(F)F)cc1 [compound 58, 3′-(R)-3′[(4-trifluoromethyl)phenethylaminomethyl]dihydrospectinomycin Trihydrochloride]",12.5,1.6 to 3.1,200,12.5 to 25,1.6 to 3.1,1.6,50 to 100,26,> 200,12.5 to 25,6.3,> 200,3.1,19,200,6.3 to 12.5,,> 200,> 200,> 200,MIC (Listeria monocytogenes): 3.1 µg/mL; MIC ([12]; read-out: MIC TN022): 3.1 µg/mL; MIC ([12]; read-out: MIC TN026): 6.3 µg/mL; MIC (Moraxella catarrhalis): 0.4 µg/mL; zone of inhibition at 4 µg/disc [19]: 19 mm; zone of inhibition at 4 µg/disc [20]: 16 mm
"CN[C@@H]1[C@H](O)[C@H](NC)[C@H]2O[C@]3(O)[C@H](O[C@@H]2[C@H]1O)O[C@H](C)C[C@@]3(O)CNCCc1cccnc1 [compound 59, 3′-(R)-3′-[((2-(pyridin-3-yl)ethyl)aminomethyl]dihydrospectinomycintetrahydrobromide]",100,,,50,,,> 200,,> 200,50,12.5 to 25,,6.3,,,,,100,> 200,> 200,MIC (Listeria monocytogenes): 12.5 µg/mL; MIC ([12]; read-out: MIC TN022): 6.3 µg/mL; MIC ([12]; read-out: MIC TN026): 6.3 µg/mL; MIC (Moraxella catarrhalis): 3.1 µg/mL
"CN[C@@H]1[C@H](O)[C@H](NC)[C@H]2O[C@]3(O)[C@H](O[C@@H]2[C@H]1O)O[C@H](C)C[C@@]3(O)CNCCc1cnccn1 [compound 60, 3′-(R)-3′-[((2-(pyrazin-2-yl)ethyl)aminomethyl]dihydrospectinomycintetrahydrobromide]",200,25,> 200,100,50,50,> 200,,> 200,100,50 to 100,> 200,3.1,,> 200,100,25,100 to 200,> 200,> 200,MIC (Listeria monocytogenes): 25 µg/mL; MIC ([12]; read-out: MIC TN022): 6.3 µg/mL; MIC ([12]; read-out: MIC TN026): 6.3 µg/mL; MIC (Moraxella catarrhalis): 6.3 µg/mL
"CN[C@@H]1[C@H](O)[C@H](NC)[C@H]2O[C@]3(O)[C@H](O[C@@H]2[C@H]1O)O[C@H](C)C[C@@]3(O)CNCCc1ccncc1 [compound 63, 3′-(R)-3′-[((2-(pyridin-4-yl)ethyl)aminomethyl]dihydrospectinomycintetrahydrobromide]",> 200,,,> 200,,,> 200,,> 200,> 200,,,25,,,,,> 200,> 200,> 200,MIC (Listeria monocytogenes): 100 µg/mL; MIC ([12]; read-out: MIC TN022): 25 µg/mL; MIC ([12]; read-out: MIC TN026): 25 µg/mL; MIC (Moraxella catarrhalis): 12.5 µg/mL
